# Measured values: paper PMC11149917, “Translational and Therapeutic Evaluation of RAS-GTP Inhibition by RMC-6236 in RAS-Driven Cancers” (Cancer Discovery, 2024)
# “And” between values parts separate entries of the source, which are not always exact repeats. Identical values can stand only once. Like-named read-outs stand apart in the source and are kept apart here.
# Test: Mouse blood and tissue PK (LC/MS-MS)
# Format: in vivo
# Conditions: for AUC(0-t): read-out: Blood AUClast; for half-life: read-out: Blood t1/2 (converted); for concentration at 4 h: read-out: RMC-6236 (nM) Tumor
# Description: For single-dose PKPD study, mice were randomized and assigned into groups (n = 3/dose/time point). […] Blood and tissues, including the tumor, brain, colon, ear skin, and muscle, were harvested at indicated time points. […] The whole blood, tumor, brain, colon, and ear skin concentrations of RMC-6236 were determined using liquid chromatography–tandem mass spectrometry (LC/MS-MS) methods. […] After thorough mixing and centrifugation, the supernatant was diluted with water or directly analyzed on a Sciex 5500 or Sciex 6500+ triple quadrupole mass spectrometer equipped with an ACQUITY or Shimadzu UPLC system. […] Bioanalysis on blood and tissue samples from xenograft models was run at Pharmaron and Wuxi AppTec. Concentrations reported as below the quantification limit were treated as zero for PK analysis. PK parameters were calculated by noncompartmental analysis of the concentration–time profiles using Phoenix WinNonLin (version 8.3 Certara). Apparent terminal elimination half-life (t1/2) values were calculated as ln(2)/k, where k represents the terminal elimination rate constant. Area under the concentration–time curve (AUC) values were estimated using a linear trapezoidal method. AUClast values were calculated from the dosing time to the last quantifiable concentration. Maximum concentration (Cmax) was recorded as observed.
# [1] = Balb/c nude, mouse, whole blood, po, 25 mg/kg, LU99-luc IC (25 mg/kg), single dose
# [2] = Balb/c nude, mouse, whole blood, sc, 25 mg/kg, LU99-luc SC (25 mg/kg), single dose
# [3] = Capan-2 (10 mg/kg), single dose
# [4] = Capan-2 (25 mg/kg), single dose
# [5] = LU99-luc IC #2 (25 mg/kg), adjacent normal brain
# [6] = LU99-luc IC #2 (25 mg/kg), intracranial tumor
# [7] = LU99-luc IC (25 mg/kg), intracranial tumor
# [8] = LU99-luc SC (25 mg/kg), subcutaneous xenograft tumor
# [9] = NCI-H358 (25 mg/kg), single dose
# [10] = NCI-H441 #2 (25 mg/kg), QD x 10 days
# [11] = NCI-H441 (3 mg/kg), single dose
# [12] = NCI-H441 (10 mg/kg), single dose
# [13] = NCI-H441 (25 mg/kg), single dose
smiles,measurement,setting,value
CCn1c(-c2cc(N3CCN(C)CC3)cnc2[C@H](C)OC)c2c3cc(ccc31)-c1csc(n1)C[C@H](NC(=O)[C@H]1C[C@@H]1C)C(=O)N1CCC[C@H](N1)C(=O)OCC(C)(C)C2 [RMC-6236],AUC(0-t),[1],16700 ng·h/mL
same,half-life,[1],3.81 h
same,Cmax,[2],1650 ng/mL
same,AUC(0-t),[2],18600 ng·h/mL
same,half-life,[2],3.13 h
same,Tumor AUClast,"Capan-2 (3 mg/kg), single dose",5138 ng·h/mL
same,Tumor Cmax,"Capan-2 (3 mg/kg), single dose",218 ng/mL
same,Tumor AUClast,[3],23425 ng·h/mL
same,Tumor Cmax,[3],906 ng/mL
same,Tumor AUClast,[4],66696 ng·h/mL
same,Tumor Cmax,[4],3000 ng/mL
same,concentration at 4 h,"Capan-2, study Capan-2 #3_PHA 2020, 0.3 mg/kg, 2h",21.6 nM and 12.8 nM
same,concentration at 4 h,"Capan-2, study Capan-2 #3_PHA 2020, 0.3 mg/kg, 8h",15.8 nM and 20.9 nM
same,concentration at 4 h,"Capan-2, study Capan-2 #3_PHA 2020, 0.3 mg/kg, 24h",7.5 nM and 9 nM
same,RMC-6236 (nM) Tumor,"Capan-2, study Capan-2 #3_PHA 2020, 0.3 mg/kg, 48h",BQL
same,concentration at 4 h,"Capan-2, study Capan-2 #3_PHA 2020, 3 mg/kg, 2h",206 nM and 213 nM
same,concentration at 4 h,"Capan-2, study Capan-2 #3_PHA 2020, 3 mg/kg, 8h",232 nM and 155 nM
same,concentration at 4 h,"Capan-2, study Capan-2 #3_PHA 2020, 3 mg/kg, 24h",93 nM and 106 nM
same,concentration at 4 h,"Capan-2, study Capan-2 #3_PHA 2020, 3 mg/kg, 48h",29 nM and 32 nM
same,concentration at 4 h,"Capan-2, study Capan-2 #3_PHA 2020, 10 mg/kg, 2h",735 nM and 868 nM
same,concentration at 4 h,"Capan-2, study Capan-2 #3_PHA 2020, 10 mg/kg, 8h",784 nM and 1189 nM
same,concentration at 4 h,"Capan-2, study Capan-2 #3_PHA 2020, 10 mg/kg, 24h",388 nM and 425 nM
same,concentration at 4 h,"Capan-2, study Capan-2 #3_PHA 2020, 10 mg/kg, 48h",127 nM and 106 nM
same,concentration at 4 h,"Capan-2, study Capan-2 #3_PHA 2020, 25 mg/kg, 2h",1563 nM and 2949 nM
same,concentration at 4 h,"Capan-2, study Capan-2 #3_PHA 2020, 25 mg/kg, 8h",2249 nM and 3216 nM
same,concentration at 4 h,"Capan-2, study Capan-2 #3_PHA 2020, 25 mg/kg, 24h",1455 nM and 1672 nM
same,concentration at 4 h,"Capan-2, study Capan-2 #3_PHA 2020, 40 mg/kg, 2h",6510 nM and 4764 nM
same,concentration at 4 h,"Capan-2, study Capan-2 #3_PHA 2020, 40 mg/kg, 8h",4542 nM and 4547 nM
same,concentration at 4 h,"Capan-2, study Capan-2 #3_PHA 2020, 40 mg/kg, 24h",2254 nM
same,concentration at 4 h,"Capan-2, study Capan-2 #3_PHA 2023, 3 mg/kg, 2h",210.835 nM and 145.489 nM
same,concentration at 4 h,"Capan-2, study Capan-2 #3_PHA 2023, 3 mg/kg, 4h",272.483 nM and 245.358 nM
same,concentration at 4 h,"Capan-2, study Capan-2 #3_PHA 2023, 3 mg/kg, 8h",266.318 nM and 212.068 nM
same,concentration at 4 h,"Capan-2, study Capan-2 #3_PHA 2023, 3 mg/kg, 24h",131.926 nM and 103.198 nM
same,concentration at 4 h,"Capan-2, study Capan-2 #3_PHA 2023, 3 mg/kg, 48h",42.167 nM and 42.4136 nM
same,concentration at 4 h,"Capan-2, study Capan-2 #3_PHA 2023, 10 mg/kg, 2h",596.75 nM and 1028.28 nM
same,concentration at 4 h,"Capan-2, study Capan-2 #3_PHA 2023, 10 mg/kg, 4h",1166.37 nM and 954.307 nM
same,concentration at 4 h,"Capan-2, study Capan-2 #3_PHA 2023, 10 mg/kg, 8h",1105.96 nM and 773.062 nM
same,concentration at 4 h,"Capan-2, study Capan-2 #3_PHA 2023, 10 mg/kg, 24h",401.943 nM and 517.841 nM
same,concentration at 4 h,"Capan-2, study Capan-2 #3_PHA 2023, 10 mg/kg, 48h",125.761 nM and 157.818 nM
same,concentration at 4 h,"Capan-2, study Capan-2 #3_PHA 2023, 25 mg/kg, 2h",1750.8 nM and 1824.77 nM
same,concentration at 4 h,"Capan-2, study Capan-2 #3_PHA 2023, 25 mg/kg, 4h",5030.45 nM and 3020.74 nM
same,concentration at 4 h,"Capan-2, study Capan-2 #3_PHA 2023, 25 mg/kg, 8h",2379.6 nM and 2700.17 nM
same,concentration at 4 h,"Capan-2, study Capan-2 #3_PHA 2023, 25 mg/kg, 24h",1997.39 nM and 1442.56 nM
same,concentration at 4 h,"Capan-2, study Capan-2 #3_PHA 2023, 50 mg/kg, 2h",5178.41 nM and 4956.48 nM
same,concentration at 4 h,"Capan-2, study Capan-2 #3_PHA 2023, 50 mg/kg, 4h",6411.36 nM and 6731.93 nM
same,concentration at 4 h,"Capan-2, study Capan-2 #3_PHA 2023, 50 mg/kg, 8h",6251.08 nM and 3945.45 nM
same,concentration at 4 h,"Capan-2, study Capan-2 #3_PHA 2023, 50 mg/kg, 24h",2996.08 nM and 1775.45 nM
same,concentration at 4 h,"Capan-2, study Capan-2 #3_PHA 2023, 100 mg/kg, 2h",9025.23 nM and 8877.27 nM
same,concentration at 4 h,"Capan-2, study Capan-2 #3_PHA 2023, 100 mg/kg, 4h",16521.6 nM and 11417.2 nM
same,concentration at 4 h,"Capan-2, study Capan-2 #3_PHA 2023, 100 mg/kg, 8h",14795.5 nM and 9185.51 nM
same,concentration at 4 h,"Capan-2, study Capan-2 #3_PHA 2023, 100 mg/kg, 24h",4216.7 nM and 3328.98 nM
same,concentration at 4 h,"Capan-2, study Capan-2 #3_PHA 2023, 100 mg/kg, 48h",1124.45 nM and 1331.59 nM
same,concentration at 4 h,"HPAC #3, 50 mg/kg, 24h, individual animals, 50 mg/kg",3354 nM
same,concentration at 4 h,"HPAC #3, 50 mg/kg, 48h, individual animals, 50 mg/kg",1332 nM and 1603 nM
same,concentration at 4 h,"HPAC #4, 3 mg/kg, 4h, individual animals, 3 mg/kg",108 nM and 297 nM and 238 nM
same,concentration at 4 h,"HPAC #4, 3 mg/kg, 8h, individual animals, 3 mg/kg",335 nM and 387 nM
same,concentration at 4 h,"HPAC #4, 3 mg/kg, 24h, individual animals, 3 mg/kg",207 nM and 164 nM
same,RMC-6236 (nM) Tumor,"HPAC #4, 3 mg/kg, 48h, individual animals",BQL
same,concentration at 4 h,"HPAC #4, 3 mg/kg, 48h, individual animals, 3 mg/kg",29.3 nM
same,concentration at 4 h,"HPAC #4, 10 mg/kg, 4h, individual animals, 10 mg/kg",957 nM and 831 nM
same,concentration at 4 h,"HPAC #4, 10 mg/kg, 8h, individual animals, 10 mg/kg",1566 nM and 1418 nM
same,concentration at 4 h,"HPAC #4, 10 mg/kg, 24h, individual animals, 10 mg/kg",386 nM and 374 nM
same,concentration at 4 h,"HPAC #4, 10 mg/kg, 48h, individual animals, 10 mg/kg",210 nM and 212 nM
same,concentration at 4 h,"HPAC #4, 25 mg/kg, 4h, individual animals, 25 mg/kg",2897 nM and 4130 nM
same,RMC-6236 (nM) Tumor,"HPAC #11, 0.3 mg/kg, 4h, individual animals",BQL
same,RMC-6236 (nM) Tumor,"HPAC #11, 0.3 mg/kg, 8h, individual animals",BQL
same,RMC-6236 (nM) Tumor,"HPAC #11, 0.3 mg/kg, 24h, individual animals",BQL
same,RMC-6236 (nM) Tumor,"HPAC #11, 0.3 mg/kg, 48h, individual animals",BQL
same,RMC-6236 (nM) Tumor,"HPAC #11, 1 mg/kg, 24h, individual animals",BQL
same,RMC-6236 (nM) Tumor,"HPAC #11, 1 mg/kg, 48h, individual animals",BQL
same,Tumor AUClast,"HPAC (25 mg/kg), single dose",79219 ng·h/mL
same,Tumor Cmax,"HPAC (25 mg/kg), single dose",3007 ng/mL
same,Tumor AUClast,"KP-4 (25 mg/kg), single dose",79463 ng·h/mL
same,Tumor Cmax,"KP-4 (25 mg/kg), single dose",3582 ng/mL
same,Brain AUClast,[5],396 ng·h/mL
same,Brain Cmax,[5],63.2 ng/mL
same,Tumor AUClast,[6],2537 ng·h/mL
same,Tumor Cmax,[6],139 ng/mL
same,Tumor AUClast,[7],2004 ng·h/mL
same,Tumor Cmax,[7],142 ng/mL
same,Tumor AUClast (h × ng/mL),[8],75128 #2 h × ng/mL
same,Tumor Cmax (ng/mL),[8],2367 #2 ng/mL
same,Tumor AUClast,[9],51307 ng·h/mL
same,Tumor Cmax,[9],3083 ng/mL
same,Tumor AUClast,[10],32762 ng·h/mL
same,Tumor Cmax,[10],1527 ng/mL
same,Tumor AUClast,[11],6321 ng·h/mL
same,Tumor Cmax,[11],253 ng/mL
same,Tumor AUClast,[12],17526 ng·h/mL
same,Tumor Cmax,[12],821 ng/mL
same,Tumor AUClast,[13],55019 ng·h/mL
same,Tumor Cmax,[13],2083 ng/mL
same,RMC-6236 (nM) Tumor,"NCI-H441 xenograft tumor, study NCI-H441#10, 0.3 mg/kg, 48h",BQL
same,RMC-6236 (nM) Tumor,"NCI-H441 xenograft tumor, study NCI-H441#10, 1 mg/kg, 48h",BQL
same,RMC-6236 (nM) Tumor,"NCI-H441 xenograft tumor, study NCI-H441#13, 0.3 mg/kg, 24h",BQL
